In one series the test system is HUVEC. Kind of series: Cytotoxicity against HUVEC cells assessed as reduction in cell viability at 0.78 to 25 ug/ml measured after 24 hrs by MTT assay. It counts as toxicity, cell-based. As to conditions: human, dose 0.78-25 µg/ml.
The test system of series [1] is Pseudomonas aeruginosa. Description: Resistance development in Pseudomonas aeruginosa assessed as increase in MIC measured after 20 days. It counts as functional, organism-based. Particulars: time 20.0 day.
The subject of series [2] is Enterococcus faecalis. Kind of series: Potency index, ratio of ciprofloxacin MIC to test compound MIC for antibacterial activity against vancomycin-resistant Enterococcus faecalis clinical isolate p1-2007225053 assessed as inhibition of bacterial growth incubated for 24 hrs. It counts as functional.
In another series the test system is L02. Description: Cytotoxicity against human L02 cells assessed as reduction in cell viability at 0.78 to 25 ug/ml measured after 24 hrs by MTT assay. The series is classed as toxicity, cell-based. Particulars: l02, 24 h, dose 0.78-25 µg/ml.
In series [3] the test system is Staphylococcus aureus. Kind of series: Induction of morphological changes in methicillin resistant Staphylococcus aureus assessed as appearance of concaved bacterial surface at 2 ug/ml incubated for 3 hrs by SEM analysis. Particulars: dose 2.0 µg/ml. It counts as functional, organism-based.
Series [4] relates to Pseudomonas aeruginosa. Description: Induction of morphological changes in Pseudomonas aeruginosa assessed as appearance of concaved bacterial surface at 2 ug/ml incubated for 3 hrs by SEM analysis. The series is classed as functional, organism-based. As to conditions: dose 2.0 µg/ml.
Series [5] relates to Pseudomonas aeruginosa. Kind of series: Induction of intracellular ROS generation in Pseudomonas aeruginosa assessed as increase in fluorescence intensity at 2 ug/ml incubated for 6 hrs by DCFH-DA dye based fluorescence analysis. The series is classed as functional, organism-based. Particulars: dose 2.0 µg/ml.
In series [6] the test system is Staphylococcus aureus. Kind of series: Antibacterial activity against Staphylococcus aureus ATCC 12600 assessed as inhibition of bacterial growth incubated for 24 hrs. It counts as functional.
Series [7] concerns Pseudomonas aeruginosa. Kind of series: Induction of morphological changes in Pseudomonas aeruginosa assessed as appearance of wrinkled bacterial surface at 2 ug/ml incubated for 3 hrs by SEM analysis. The series is classed as functional, organism-based. As to conditions: dose 2.0 µg/ml.
Series [8] concerns Staphylococcus aureus. Kind of series: Antibiofilm activity in methicillin resistant Staphylococcus aureus assessed as biofilm eradication measured after 24 hrs by crystal violet staining based analysis. Particulars: dose 1-2 µg/ml. The series is classed as functional, organism-based.
Series [9] concerns Streptococcus pyogenes. Description: Potency index, ratio of norfloxacin MIC to test compound MIC for antibacterial activity against Streptococcus pyogenes ATCC 19615 assessed as inhibition of bacterial growth incubated for 24 hrs. It counts as functional.
For series [10], the system named is Enterococcus faecalis. Description: Antibacterial activity against vancomycin-resistant Enterococcus faecalis clinical isolate p1-2007225053 assessed as inhibition of bacterial growth incubated for 24 hrs. It counts as functional.
Series [11] deals with Enterococcus faecalis. Description: Antibacterial activity against vancomycin-resistant Enterococcus faecalis clinical isolate p1-2007226001 assessed as inhibition of bacterial growth incubated for 24 hrs. It counts as functional.
Series [12] relates to Staphylococcus aureus. Kind of series: Resistance development in methicillin resistant Staphylococcus aureus assessed as increase in MIC measured after 20 days. The series is classed as functional, organism-based. Particulars: time 20.0 day.
A further series has as its system Erythrocyte. Description: Hemolytic activity in human Red blood cells assessed as concentration required for 5% hemolysis measured after 1.5 hrs by absorbance based assay. The series is classed as toxicity, cell-based.
Series [13] relates to Staphylococcus aureus. Kind of series: Antibacterial activity against methicillin resistant Staphylococcus aureus infected in female ICR mouse assessed as log reduction in bacterial load at 10 mg/kg pre-infected with bacteria for 24 hrs followed by compound administration on wound site every 6 hrs for 2 times and measured 36 hrs post infection. As to conditions: time 12 hrs. It counts as functional.

For series [14], the system named is Enterococcus faecalis. Description: Antibacterial activity against Enterococcus faecalis clinical isolate assessed as inhibition of bacterial growth incubated for 24 hrs. It counts as functional.
Series [15] relates to Streptococcus pyogenes. Description: Potency index, ratio of ciprofloxacin MIC to test compound MIC for antibacterial activity against Streptococcus pyogenes ATCC 19615 assessed as inhibition of bacterial growth incubated for 24 hrs. The series is classed as functional.
The subject of a further series is Escherichia coli. Kind of series: Antibacterial activity against Escherichia coli ATCC 25922 assessed as inhibition of bacterial growth incubated for 24 hrs. The series is classed as functional.
The nature of series [16]: Cytotoxicity against HUVEC cells assessed as cell viability at 25 ug/ml measured after 24 hrs by MTT assay relative to control. Particulars: human, at 25 µg/mL, read-out: Activity. The series is classed as toxicity, cell-based. A general note: Tetrazolium dyes change colour on reduction, which living cells bring about.

In brackets after ≈: the same amount, converted by molar mass. Activity calls are given as the source filed them.

As to `N#CCc1cc2c(cc1F)c(=O)c(C(=O)O)cn2C1CC1`, the figures for the Activity result with HUVEC, with L02 and in the series with Staphylococcus aureus [8] were “Non-Toxic”, “Non-Toxic” and “Dose-Dependent Effect”, respectively. Also, the result with Pseudomonas aeruginosa [1] and with Staphylococcus aureus [12] was inactive. Moreover, the Ratio is on record as 2 with Enterococcus faecalis [2], 128 in the series on Streptococcus pyogenes [9] and 64 in the series on Streptococcus pyogenes [15]. Further, the result with Staphylococcus aureus [3], in the series with Pseudomonas aeruginosa [4], in the series with Pseudomonas aeruginosa [5] and in the series on Pseudomonas aeruginosa [7] was Active. The minimum inhibitory concentration (MIC) in the series on Staphylococcus aureus [6] came to 1 µg/mL (≈ 3.49 µM); in the series with Enterococcus faecalis [10] it was 0.125 µg/mL (≈ 0.437 µM); with Enterococcus faecalis [11], 4 µg/mL (≈ 14 µM); in the series on Enterococcus faecalis [14] it was 4 µg/mL (≈ 14 µM); in the series on Escherichia coli, 0.5 µg/mL (≈ 1.75 µM). The HC5 in the series on Erythrocyte is more than 10000 µg/mL. For the same compound, the “log(activity)” value in the series with Staphylococcus aureus [13] is approximately 2.5. In addition, the viability at 24 h, 25 ug/ml in series [16] is more than 90%.

For orientation: MIC means the smallest concentration in the dilution series that meets the test's criterion for growth inhibition.

The values are drawn from ChEMBL document CHEMBL5506059, “Cyanomethylquinolones as a New Class of Potential Multitargeting Broad-Spectrum Antibacterial Agents” (J Med Chem, 2024).
